Results from ChEMBL document CHEMBL1201862, “PubChem BioAssay data set” (2004).
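Method: 48-hour compound exposure of cells in 96-well plates, five concentrations, linear interpolation of endpoints. GI50: concentration for 50% inhibition of growth.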 Calls of active or inactive are those of the source. Cut-off read from the data, not from the text of the source: active = GI50 up to about 1.1 µM and inactive = higher.

How the values were obtained:
Experiment in all cases: growth of human tumour cells (NCI), 48 h
[1] = test system: 786-0
[2] = test system: A498
[3] = test system: A549
[4] = test system: ACHN
[5] = test system: BT-549
[6] = test system: CAKI-1
[7] = test system: CCRF-CEM
[8] = test system: DU-145
[9] = test system: EKVX
[10] = test system: HCC 2998
[11] = test system: HCT-116
[12] = test system: HCT-15
[13] = test system: HL-60
[14] = test system: HOP-62
[15] = test system: HOP-92
[16] = test system: HT-29
[17] = test system: Hs-578T
[18] = test system: IGROV-1
[19] = test system: K562
[20] = test system: KM12
[21] = test system: LOX IMVI
[22] = test system: M14
[23] = test system: MCF7
[24] = test system: MDA-MB-231
[25] = test system: MDA-MB-435
[26] = test system: MOLT-4
[27] = test system: Malme-3M
[28] = test system: NCI-H226
[29] = test system: NCI-H23
[30] = test system: NCI-H460
[31] = test system: NCI-H522
[32] = test system: NCI/ADR-RES
[33] = test system: OVCAR-3
[34] = test system: OVCAR-4
[35] = test system: OVCAR-5
[36] = test system: OVCAR-8
[37] = test system: PC-3
[38] = test system: RPMI-8226
[39] = test system: RXF 393
[40] = test system: SF-268
[41] = test system: SF-295
[42] = test system: SF-539
[43] = test system: SK-MEL-28
[44] = test system: SK-MEL-2
[45] = test system: SK-MEL-5
[46] = test system: SK-OV-3
[47] = test system: SN12C
[48] = test system: SNB-19
[49] = test system: SNB-75
[50] = test system: SW-620
[51] = test system: T47D
[52] = test system: TK-10
[53] = test system: U-251
[54] = test system: UACC-257
[55] = test system: UACC-62
[56] = test system: UO-31
[57] = test system: MDA-N
[58] = test system: SR

## O=C(CSCC(=O)N/N=C/c1cccc(OCc2ccccc2)c1)N/N=C/c1cccc(OCc2ccccc2)c1
[1]
  GI50: 54.2 µM (inactive)
[2]
  GI50: > 44.3 µM (inactive)
[3]
  GI50: 27.9 µM (inactive)
[4]
  GI50: 32.9 µM (inactive)
[5]
  GI50: 68.1 µM (inactive)
[6]
  GI50: > 100 µM (inactive)
[7]
  GI50: 24.4 µM (inactive)
[8]
  GI50: > 100 µM (inactive)
[9]
  GI50: 69.3 µM (inactive)
[10]
  GI50: 30.6 µM (inactive)
[11]
  GI50: 26.8 µM (inactive)
[12]
  GI50: 44.4 µM
[13]
  GI50: 21.5 µM (inactive)
[14]
  GI50: > 100 µM (inactive)
[15]
  GI50: 36.7 µM (inactive)
[16]
  GI50: 39.5 µM (inactive)
[17]
  GI50: > 100 µM (inactive)
[18]
  GI50: > 70.8 µM (inactive)
[19]
  GI50: 22.3 µM (inactive)
[20]
  GI50: 33.3 µM (inactive)
[21]
  GI50: 36.1 µM (inactive)
[22]
  GI50: 37.5 µM (inactive)
[23]
  GI50: 33.7 µM (inactive)
[24]
  GI50: > 100 µM (inactive)
[25]
  GI50: 37.5 µM (inactive)
[26]
  GI50: 15.5 µM (inactive)
[27]
  GI50: 45.5 µM (inactive)
[28]
  GI50: > 74.5 µM (inactive)
[29]
  GI50: 36.6 µM (inactive)
[30]
  GI50: 34.4 µM (inactive)
[31]
  GI50: > 47.6 µM (inactive)
[32]
  GI50: 44.6 µM (inactive)
[33]
  GI50: 39.5 µM (inactive)
[34]
  GI50: > 76.4 µM (inactive)
[35]
  GI50: 96.8 µM (inactive)
[36]
  GI50: 32.2 µM (inactive)
[37]
  GI50: 20 µM (inactive)
[38]
  GI50: 8.91 µM (inactive)
[39]
  GI50: > 69.7 µM (inactive)
[40]
  GI50: > 80.2 µM (inactive)
[41]
  GI50: 34.2 µM (inactive)
[42]
  GI50: > 100 µM (inactive)
[43]
  GI50: > 100 µM (inactive)
[44]
  GI50: 41.3 µM (inactive)
[45]
  GI50: 31.3 µM (inactive)
[46]
  GI50: > 100 µM (inactive)
[47]
  GI50: 35.5 µM (inactive)
[48]
  GI50: 57.5 µM (inactive)
[49]
  GI50: > 100 µM (inactive)
[50]
  GI50: > 87.1 µM (inactive)
[51]
  GI50: 38.9 µM (inactive)
[52]
  GI50: 33.3 µM (inactive)
[53]
  GI50: 39.2 µM (inactive)
[54]
  GI50: 32.3 µM (inactive)
[55]
  GI50: > 92.3 µM (inactive)
[56]
  GI50: 46.9 µM (inactive)

## CC(C)(C)OC(=O)NC(Cc1ccccc1)NC(=O)NC(=O)OCc1ccccc1 (stereo unspecified)
[1]
  GI50: 34.4 µM (inactive)
[3]
  GI50: 70.8 µM (inactive)
[4]
  GI50: 39.1 µM (inactive)
[5]
  GI50: 54.5 µM (inactive)
[6]
  GI50: 24 µM (inactive)
[8]
  GI50: 87.1 µM (inactive)
[9]
  GI50: > 100 µM (inactive)
[10]
  GI50: 40 µM (inactive)
[11]
  GI50: 19.2 µM (inactive)
[12]
  GI50: > 100 µM
[14]
  GI50: 31.3 µM (inactive)
[16]
  GI50: > 100 µM (inactive)
[17]
  GI50: 44 µM (inactive)
[18]
  GI50: > 100 µM (inactive)
[19]
  GI50: 74.5 µM (inactive)
[20]
  GI50: 59.8 µM (inactive)
[22]
  GI50: 57.7 µM (inactive)
[23]
  GI50: > 100 µM (inactive)
[25]
  GI50: > 100 µM (inactive)
[57]
  GI50: 64 µM (inactive)
[26]
  GI50: > 100 µM (inactive)
[27]
  GI50: 41.8 µM (inactive)
[28]
  GI50: 28.3 µM (inactive)
[29]
  GI50: 87.9 µM (inactive)
[30]
  GI50: 63.7 µM (inactive)
[31]
  GI50: 15.6 µM (inactive)
[32]
  GI50: 55.7 µM (inactive)
[33]
  GI50: 42.2 µM (inactive)
[35]
  GI50: > 100 µM (inactive)
[36]
  GI50: 55.5 µM (inactive)
[37]
  GI50: 18.7 µM (inactive)
[38]
  GI50: > 100 µM (inactive)
[39]
  GI50: 22 µM (inactive)
[40]
  GI50: 40.3 µM (inactive)
[41]
  GI50: 36.6 µM (inactive)
[42]
  GI50: 25.7 µM (inactive)
[43]
  GI50: 38.9 µM (inactive)
[44]
  GI50: 34.3 µM (inactive)
[45]
  GI50: 26.7 µM (inactive)
[46]
  GI50: 54.6 µM (inactive)
[47]
  GI50: > 100 µM (inactive)
[48]
  GI50: 36.5 µM (inactive)
[49]
  GI50: 32.8 µM (inactive)
[58]
  GI50: > 100 µM (inactive)
[50]
  GI50: 59.6 µM (inactive)
[52]
  GI50: 53.2 µM (inactive)
[53]
  GI50: 58.5 µM (inactive)
[54]
  GI50: 81.3 µM (inactive)
[55]
  GI50: 25.3 µM (inactive)
[56]
  GI50: > 100 µM (inactive)
